Data: US11820762B2, “Compounds as potential therapeutic agents targeting various neurodegenerative diseases” (The Hong Kong University of Science and Technology, priority 2020, dated 2023)

Key:
[1] = test system: GMR-GAL4-(G4C2)29 Drosophila; experiment: Drosophila feeding and external eye assay; type: in vivo; conditions: 100 μM in solid food during larval stage; day 7 after eclosion
Method: A fly line expressing 29 GGGGCC repeats (29R) (SEQ ID NO: 6), under the GMR-GAL4 promoter (GMR-GAL4-(G4C2)29 (SEQ ID NO: 6)), was used. Both GMR-GAL4-(G4C2)29 (SEQ ID NO: 6) and WT flies were raised at room temperature (25° C.) on a cornmeal medium supplemented with dry yeast. […] Parent flies for cross were set in solid food containing testing compound, and F1 larvae were thus fed with food continuously until eclosion. After eclosion, F1 flies were transferred to normal food containers without compounds.
Eye images of GMR-GAL4-(G4C2)29 (SEQ ID NO: 6) or WT adult flies at day 7 after eclosion were captured using a CCD camera on an Olympus stereomicroscope. Eye morphologies of flies in different treatment groups were compared to evaluate the retina degeneration level. The affected eye area and total eye area were measured to calculate the degeneration ratio by ImageJ.
We next treated WT Drosophila and Drosophila with GMR-GAL4 driver promoted expression of (G4C2)29-repeats (SEQ ID NO: 6) (GMR-GAL4-(G4C2)29) (SEQ ID NO: 6) with cA or cC by feeding larvae with compounds in solid food. DMSO was used as a negative control. The eyes of day 7 adult Drosophila with GMR-GAL4-(G4C2)29 (SEQ ID NO: 6) were much rougher than the same age WT fly, indicating eye degeneration (FIG. 8E). The affected eye degeneration area accounted for over 50% of the whole eye (FIG. 8F).

[2] = Parallel artificial membrane permeability assay (PAMPA); type: in vitro ADME; conditions: PAMPA
Method: 500 μL of 500 μM test compound and 200 μM Equilibrium Standards for each test compound were prepared. 5 μL DMSO plus 245 μL PBS served as blank control. Firstly, 300 μL PBS was added to each well in the acceptor plate. With the donor plate in its tray, 5 μL 4% Lecithin in Dodecane was added directly to the well membranes of the donor plate. 200 μL of each 500 μM test compound was added to duplicate wells of the donor plate. The donor plate was carefully placed into the acceptor plate wells and incubated at 37° C. for 18 hours. Then the liquid in acceptor plate wells was collected as Acceptor Solution for analysis. Absorbance spectrum from 200 nm to 500 nm in 10 nm intervals was read to determine the peak absorbance of test compounds and blank control.
(§1) In addition, we also tested the permeability on live cells. Neuro2a cells treated with cA at different concentrations (10 μg/ml, 20 μg/ml) for different incubation time (24 h, 48 h) were lysed. Supernatants of cell lysates were collected and analyzed by UPLC-MS. Meanwhile, cell media from different treatment groups were used as control. […] In contrast, the intensity of cA signal was the same in the three corresponding cell media groups (FIG. 25, 4-6).

[3] = test system: RNA (G4C2)2 (SEQ ID NO: 8) G4; experiment: 1D 1H-NMR titration of RNA (G4C2)2 G4; type: binding; conditions: ratios 1:3, 1:5, 1:10
Method: (§2) Single […] were purchased from Integrated DNA Technologies (IDT) and Takara. Single-strand DNA/RNA sample at 100 μM was then annealed by heating up to 95° C. for 15 mins, and slowly cooled to room temperature in the annealing buffer (70 mM KCl, 20 mM potassium phosphate (pH 7.0)) for overnight. The final NMR samples contained 0.1 mM DNA or RNA in 70 mM KCl and 20 mM potassium phosphate buffer (pH 7.0).
The 1D ^1H-NMR spectra were performed at 25° C. All compounds were dissolved in isotope-labeled d6-DMSO (Sigma-Aldrich) at about 50 mM concentration, working as stock solutions. To avoid chemical shift changes of DNA/RNA G4 resulted from d6-DMSO addition, […] d6-DMSO was added into 500 μL of 0.1 mM DNA/RNA G4 solution in the NMR buffer (20 mM potassium phosphate buffer and 70 mM KCl, pH 7.0, 10% D2O) and then 1D ^1H-NMR spectrum was recorded as a reference. During NMR titration experiments of adding each compound into the DNA/RNA G4 solution, the maximal volume of 10 μL of each compound in d6-DMSO solution was regarded as a final data point. […]

[4] = test system: DNA (G4C2)2 (SEQ ID NO: 4) G4; experiment: 1D 1H-NMR titration of DNA (G4C2)2 G4; type: binding; conditions: cA at 1:1, 1:5, 1:10
Method: as §2
(§3) The 1D ^1H-NMR spectra were performed at 25° C. All compounds were dissolved in isotope-labeled d6-DMSO (Sigma-Aldrich) at about 50 mM concentration, working as stock solutions. To avoid chemical shift changes of DNA/RNA G4 resulted from d6-DMSO addition, […] d6-DMSO was added into 500 μL of 0.1 mM DNA/RNA G4 solution in the NMR buffer (20 mM potassium phosphate buffer and 70 mM KCl, pH 7.0, 10% D2O) and then 1D ^1H-NMR spectrum was recorded as a reference. During NMR titration experiments of adding each compound into the DNA/RNA G4 solution, the maximal volume of 10 μL of each compound in d6-DMSO solution was regarded as a final data point.
(§4) In addition to the four-repeat G4C2 DNA G4, there are parallel and hybrid G4 conformations formed simultaneously by the two-repeat G4C2 DNA^38,39. […]

[5] = test system: human telomeric variant htel21_T18 G4; experiment: 1D 1H-NMR titration of human telomeric variant htel21_T18 G4; type: binding; conditions: cA at 1:10
Method: as §2, §3, §4

[6] = test system: human telomeric htel23 G4; experiment: 1D 1H-NMR titration of human telomeric htel23 G4; type: binding; conditions: 1:10 titration
Method: as §2, §3, §4

[7] = test system: DNA G-quadruplex formed by chicken DNA replication origin; experiment: 1D 1H-NMR titration of chicken DNA G-quadruplex; type: binding; conditions: 1:3 titration
Method: as §2, §3, §4

Neuro2a cells = experiment: Permeability on live cells (cell lysates analysed by UPLC-MS); type: in vitro ADME; conditions: 10, 20 μg/ml; 24 h, 48 h; UPLC-MS of lysates
Method: as §1

| SMILES | eye degeneration phenotype [1] | permeability (PAMPA) [2] | binding to RNA (G4C2)2 G4 by NMR titration [3] | binding to DNA (G4C2)2 G4 by NMR titration [4] | binding to htel21_T18 G4 by NMR titration [5] | binding to htel23 G4 by NMR titration [6] | binding to chicken DNA G-quadruplex by NMR titration [7] | entry into live cells (Neuro2a cells) |
| --- | --- | --- | --- | --- | --- | --- | --- | --- |
| CC(=O)Cc1cc2c(c(O)c1C(=O)O)-c1c(c(O)c3oc4c(O[C@@H]5O[C@H](C(=O)O)[C@@H](O)[C@H](O)[C@H]5O)cccc4c(=O)c3c1O)CC2 [cC, chrexanthomycin C] | significantly rescuing the eye degeneration phenotype | good permeability |  |  |  |  |  |  |
| CC(=O)Cc1cc2c(c(O)c1C(=O)O)-c1c(c(O)c3oc4c(O[C@@H]5OC(C(=O)O)=C[C@H](O)[C@H]5O)cccc4c(=O)c3c1O)CC2 [cA, chrexanthomycin A] | significantly rescuing the eye degeneration phenotype |  | Chemical shift changes were observed | neither with 1:1 (light brown), 1:5 (blue) nor 1:10 (pink) titration of cA made significant chemical shift changes | no obvious chemical shift changes | no obvious chemical shift changes | did not show binding | could penetrate cell membrane and enter into cells |
